Where no end group is shown, it is not given here.
What was measured:
[1] = test system: CIA mice infected with chronic hepatitis B; assay: CIA mice infected with chronic hepatitis B (Example 8); assay type: in vivo, mouse
Summary of the method: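 DBA/1 mice given rAAV8-1.3HBV (1×10^12 vg/mL) i.v.; 2 days later immunised intradermally with bovine CII/CFA (100 μg collagen), boosted i.p. at day 21 with CII/IFA. Randomised at paw score 1; drugs i.v. every other day for 27 days. Paw inflammation scores, serum viral and liver-function markers measured.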

[2] = test system: immune system of healthy rats; assay: Immune indicators of SD rats after one month of administration (Example 4); assay type: in vivo, rat; conditions: once a day for 4 weeks, end of administration
Description: SD rats were used to investigate the effects of the SE-DR affinity peptides on the immune indicators of the rats after continuous administration for one month. […] At the end of administration, analysis was conducted on the serum anti-FNS007 antibodies, different types of serum immunoglobulins, the serum complement, the peripheral blood T lymphocyte and the serum cytokines.

CIA mice = assay type: in vivo, mouse
Description: Male DBA/1 mice were used to establish CIA model. Methods: Mice were immunized by intradermally injecting an emulsion of bovine C II and CFA (containing 100 μg collagen) at the tail head. After 21 days, the mice were boosted once by intraperitoneally injecting an emulsion of bovine C II and IFA (containing 100 μg collagen). […] Another 10 female DBA/1 mice were not subjected to model establishment and set as the control group. PBS was administrated to both the model group and the control group. Corresponding drugs were administrated to the mice in each group by tail vein injection at the volume of 10 mL/kg, once every other day, for 28 consecutive days, followed by a recovery period of 28 days. The inflammation score of the four paws of the mice in each group was evaluated during the administration (once every other day), and the area under the curve (AUC) of the inflammation score was calculated during the administration. During drug discontinuation, the inflammation scores of the four paws of the […] in each group were continuously evaluated (once every other day), and the rats were sacrificed on day 28 after drug discontinuation. HE staining was performed on the ankle joint for tissue injury evaluation. The specific scoring criteria were as follows: 0=normal synovial tissue; 1=synovial hyperplasia and inflammatory cell infiltration; 2=pannus formation and cartilage erosion; 3=destruction of most of the cartilage with subchondral bone erosion; 4=loss of joint integrity, ankylosis.

[3] = test system: CIA rats with latent tuberculosis infection
CIA rats [4] = assay type: in vivo, rat
Excerpt: Female Lewis rats were used to establish CIA model. Methods: The rats were immunized by intradermal injection with the emulsion prepared by bovine C II and IFA at the tail head. After 7 days, the rats were boosted once with the same method. Thereafter, the morphological changes of the four paws of the rats were examined every day. […] Another 8 female Lewis rats were not subjected to model establishment and set as the control group. PBS was administrated to both the model group and the control group. […] The inflammation scores of the four paws of the rats in each group were evaluated during the administration (once every other day), and the area under the curve (AUC) of the inflammation score was calculated during the administration. During drug discontinuation, the inflammation scores of the four paws of the rats in each group were continuously evaluated (once every other day), and the rats were sacrificed on day 22 after drug discontinuation. HE staining was performed on the ankle joint for tissue injury evaluation. The specific scoring criteria were as follows: 0=normal synovial tissue; 1=synovial hyperplasia and inflammatory cell infiltration; 2=pannus formation and cartilage erosion; 3=destruction of most of the cartilage with subchondral bone erosion; 4=loss of joint integrity, ankylosis.

CIA rats [5] = assay: CIA rat model: inflammation score AUC and peripheral blood T-cell subtypes (Example 3); assay type: in vivo; conditions: 0.2 mmol
Description: Collagen-induced arthritis (CIA) model was established by intradermal injection of the emulsion formulated using type II bovine collagen (CII) together with incomplete Freund's adjuvant (IFA) into the tail head of a female Lewis rat. After the model establishment, the morphological changes of rats' four paws were examined every day. […] Except for the model group, the dosage of polypeptide was all set as 0.2 mmol. A control group was also set up, in which the drug was injected into the tail vein once every other day for […]. The area under the curve (AUC) of the inflammation score was used for the efficacy analysis from the day the rats were enrolled, once every other day, until the end of administration.

[6] = HE staining of ankle joint, score 0-4
[7] = peripheral blood, […] after end of administration, flow cytometry

Sequence: FKGEQAGAGE [APL2]
- ALT level ([1]; at sacrifice, day 28): 45.88 ± 19.74 U/L
- Hepatitis B activation rate (Ratio of ALT > 100 U/L) ([1]; at sacrifice, day 28): 0%
- Observation on the daily condition of mice ([1]; during administration): No abnormality
- Inflammation score and area under the time curve (AUC) ([1]; peptides 50 μmol, Abatacept 100 μg, tail i.v. once every other day for 27 days): 89.86 ± 46.14
- CD3% [2]: 37.4 ± 10.52%
- CD4% [2]: 19.77 ± 6.05%
- CD8% [2]: 17.29 ± 7.09%
- IFN-γ [2]: 2.47 ± 0.36 pg/mL
- IL-2 [2]: 3.69 ± 3.03 pg/mL
- IL-4 [2]: 1.96 ± 1.26 pg/mL
- TNF-α [2]: 5.13 ± 1.83 pg/mL
- inflammation score during drug discontinuation compared with that at the time of drug discontinuation (CIA mice; 28 days of observation after stopping at day 28): could maintain the therapeutic effect
- Pathological score during 28 days of drug discontinuation (CIA mice; [6]): 2.05 ± 0.87
- AUC, during drug discontinuation (day 29-56) (CIA mice; inflammation score AUC after stopping administration at day 28): 87.55 ± 40.08
- Incidence of infection in mice (CIA mice; mouse, in vivo): 0%
- Observation on the daily state of mice (CIA mice; mouse, in vivo): No
- Observation on the daily condition of rats ([3]; during administration): No abnormality
- Tuberculosis recurrence rate ([3]; peptides 0.2 mmol, adalimumab 1 mg/kg, 21 days): 0%
- Inflammation score and area under the time curve (AUC) ([3]; peptides 0.2 mmol, adalimumab 1 mg/kg, tail i.v. once every other day for 21 days): 48.03 ± 31.91
- Culture of MTB from lungs and spleens of rats at sacrifice ([3]; sacrifice on day 22, peptides 0.2 mmol, adalimumab 1 mg/kg): Negative
- inflammation score during drug discontinuation compared with that at the time of drug discontinuation (CIA rats [4]; 21 days of observation after stopping at day 21): could maintain the therapeutic effect
- Pathological score during 21 days of drug discontinuation (CIA rats [4]; [6]): 1.93 ± 0.58
- AUC, during drug discontinuation (day 22-42) (CIA rats [4]; inflammation score AUC after stopping administration at day 21): 42.86 ± 31.21
- Incidence of infection in rats (CIA rats [4]; rat, in vivo): 0%
- Observation on the daily state of rats (CIA rats [4]; rat, in vivo): No
- Inflammation score and area under the time curve (AUC) (CIA rats [5]; female Lewis CIA rats, tail vein once every other day for 15 days): 52.37 ± 33.69
- Th1 (%) (CIA rats [5]; [7]): 0.16 ± 0.09 %
- Th2 (%) (CIA rats [5]; [7]): 4.53 ± 0.50 %
- Th17 (%) (CIA rats [5]; [7]): 0.87 ± 0.09 %
- Treg (%) (CIA rats [5]; [7]): 5.52 ± 0.68 %
